Patent US20220128542A1, “TREATMENT EFFICIENCY EVALUATION” (TX MEDIC AB, priority 2019, published 2022)

System: brain of rats subjected to severe traumatic brain injury (sTBI)
Experiment: Ingenuity pathway analysis of differentially regulated genes after sTBI (canonical pathways, diseases and molecular functions; Example 4)
Set-up: species or system rat
Conditions: TBI + 5 mg/kg LMW-DS
Procedure: Pathway analysis of the differentially regulated genes was carried out using the Ingenuity pathway analysis package. The analysis was performed with special reference to pathways and molecular processes and diseases associated with neurodegenerative disease, including dementia, Alzheimer's disease, ALS, TBI and stroke, and with scarring and fibrosis, including glaucoma and normal pressure hydrocephalus (NPH) after subarachnoid haemorrhage.

[1] = 7 days after TBI, relative to control

Substance: sodium salt of dextran sulfate [LMW-DS]
- Effect on diseases or functions annotation: Resorption of bone (2 days after TBI): Inhibited
- Effect on diseases or functions annotation: Secretion of molecule (2 days after TBI): Activated
- Effect on diseases or functions annotation: Size of body (2 days after TBI): Inhibited
- Effect on diseases or functions annotation: Synthesis of hormone (2 days after TBI): Inhibited
- Effect on diseases or functions annotation: Transcription of RNA (2 days after TBI): Inhibited
- Effect on diseases or functions annotation: Transport of molecule (2 days after TBI): Activated
- Effect on diseases or functions annotation: Vasculogenesis (2 days after TBI): Inhibited
- z score, Ingenuity canonical pathway: Acute Phase Response Signaling [1]: 1.89
- z score, Ingenuity canonical pathway: Adrenomedullin signaling pathway [1]: −0.632
- z score, Ingenuity canonical pathway: Cardiac Hypertrophy Signaling [1]: 1
- z score, Ingenuity canonical pathway: Colorectal Cancer Metastasis Signaling [1]: −0.378
- z score, Ingenuity canonical pathway: Dendritic Cell Maturation [1]: 1.897
- z score, Ingenuity canonical pathway: ERK5 Signaling [1]: −0.447
- z score, Ingenuity canonical pathway: ERK/MAPK Signaling [1]: 1
- z score, Ingenuity canonical pathway: Endothelin-1 Signaling [1]: 1.633
- z score, Ingenuity canonical pathway: Fcγ Receptor-mediated Phagocytosis in Macrophages and Monocytes [1]: 2.236
- z score, Ingenuity canonical pathway: GNRH Signaling [1]: 2
- z score, Ingenuity canonical pathway: HMGB1 Signaling [1]: 1.134
- z score, Ingenuity canonical pathway: IL-1 Signaling [1]: 1
- z score, Ingenuity canonical pathway: IL-6 Signaling [1]: 1
- z score, Ingenuity canonical pathway: IL-8 Signaling [1]: 2.646
- z score, Ingenuity canonical pathway: ILK Signaling [1]: 1.89
- z score, Ingenuity canonical pathway: Leukocyte Extravasation Signaling [1]: 1.342
- z score, Ingenuity canonical pathway: Neuroinflammation Signaling Pathway [1]: 1.941
- z score, Ingenuity canonical pathway: Osteoarthritis Pathway [1]: -1
- z score, Ingenuity canonical pathway: PI3K Signaling in B Lymphocytes [1]: 1.89
- z score, Ingenuity canonical pathway: PKCθ Signaling in T Lymphocytes [1]: 2
- z score, Ingenuity canonical pathway: PPAR Signaling [1]: −1.342
- z score, Ingenuity canonical pathway: Phospholipase C Signaling [1]: 1
- z score, Ingenuity canonical pathway: Production of Nitric Oxide and Reactive Oxygen Species in Macrophages [1]: 2.236
- z score, Ingenuity canonical pathway: Protein Kinase A Signaling [1]: −1.342
- z score, Ingenuity canonical pathway: Role of NFAT in Regulation of the Immune Response [1]: 2.53
- z score, Ingenuity canonical pathway: Signaling by Rho Family GTPases [1]: 1
- z score, Ingenuity canonical pathway: Synaptic Long Term Depression [1]: 1
- z score, Ingenuity canonical pathway: Wnt/β-catenin Signaling [1]: −1
- z score, Ingenuity canonical pathway: cAMP-mediated signaling [1]: −2
- z score, Ingenuity canonical pathway: mTOR Signaling [1]: 1
- Diseases or functions annotation: Abdominal adenocarcinoma (7 days after TBI): Activated
- Diseases or functions annotation: Abdominal cancer (7 days after TBI): Inhibited
- Diseases or functions annotation: Abdominal carcinoma (7 days after TBI): Inhibited
- Diseases or functions annotation: Abdominal neoplasm (7 days after TBI): Activated
- Diseases or functions annotation: Adenocarcinoma (7 days after TBI): Inhibited
- Diseases or functions annotation: Angiogenesis (7 days after TBI): Activated
- Diseases or functions annotation: Apoptosis (7 days after TBI): Inhibited
- Diseases or functions annotation: Apoptosis of tumor cell lines (7 days after TBI): Inhibited
- Diseases or functions annotation: Bleeding (7 days after TBI): Inhibited
- Diseases or functions annotation: Breast or colorectal cancer (7 days after TBI): Inhibited
- Diseases or functions annotation: Breast or ovarian cancer (7 days after TBI): Inhibited
- Diseases or functions annotation: Breast or pancreatic cancer (7 days after TBI): Inhibited
- Diseases or functions annotation: Cancer (7 days after TBI): Activated
- Diseases or functions annotation: Cancer of cells (7 days after TBI): Activated
- Diseases or functions annotation: Cancer of secretory structure (7 days after TBI): Activated
- Diseases or functions annotation: Carcinoma (7 days after TBI): Inhibited
- Diseases or functions annotation: Cell cycle progression (7 days after TBI): Activated
- Diseases or functions annotation: Cell death (7 days after TBI): Activated
- Diseases or functions annotation: Cell death of epithelial cells (7 days after TBI): Activated
- Diseases or functions annotation: Cell death of tumor cell lines (7 days after TBI): Inhibited
- Diseases or functions annotation: Cell movement (7 days after TBI): Activated
- Diseases or functions annotation: Cell movement of endothelial cells (7 days after TBI): Activated
- Diseases or functions annotation: Cell movement of myeloid cells (7 days after TBI): Activated
- Diseases or functions annotation: Cell movement of tumor cell lines (7 days after TBI): Activated
- Diseases or functions annotation: Cell survival (7 days after TBI): Activated
- Diseases or functions annotation: Cell viability (7 days after TBI): Activated
- Diseases or functions annotation: Cell viability of tumor cell lines (7 days after TBI): Activated
- Diseases or functions annotation: Cellular homeostasis (7 days after TBI): Activated
- Diseases or functions annotation: Chemotaxis (7 days after TBI): Activated
- Diseases or functions annotation: Concentration of lipid (7 days after TBI): Inhibited
- Diseases or functions annotation: Development of body axis (7 days after TBI): Activated
- Diseases or functions annotation: Development of body trunk (7 days after TBI): Activated
- Diseases or functions annotation: Development of connective tissue cells (7 days after TBI): Activated
- Diseases or functions annotation: Development of epithelial tissue (7 days after TBI): Activated
- Diseases or functions annotation: Development of genitourinary system (7 days after TBI): Inhibited
- Diseases or functions annotation: Development of head (7 days after TBI): Activated
- Diseases or functions annotation: Development of neurons (7 days after TBI): Activated
- Diseases or functions annotation: Development of sensory organ (7 days after TBI): Activated
- Diseases or functions annotation: Development of vasculature (7 days after TBI): Activated
- Diseases or functions annotation: Differentiation of bone (7 days after TBI): Activated
- Diseases or functions annotation: Differentiation of bone cells (7 days after TBI): Activated
- Diseases or functions annotation: Differentiation of connective tissue cells (7 days after TBI): Activated
- Diseases or functions annotation: Digestive organ tumor (7 days after TBI): Inhibited
- Diseases or functions annotation: Digestive system cancer (7 days after TBI): Inhibited
- Diseases or functions annotation: Endocrine gland tumor (7 days after TBI): Inhibited
- Diseases or functions annotation: Expression of RNA (7 days after TBI): Activated
- Diseases or functions annotation: Extracranial solid tumor (7 days after TBI): Activated
- Diseases or functions annotation: Failure of kidney (7 days after TBI): Activated
- Diseases or functions annotation: Formation of eye (7 days after TBI): Activated
- Diseases or functions annotation: Gastrointestinal tumor (7 days after TBI): Inhibited
- Diseases or functions annotation: Genital tumor (7 days after TBI): Activated
- Diseases or functions annotation: Genitourinary carcinoma (7 days after TBI): Activated
- Diseases or functions annotation: Genitourinary tumor (7 days after TBI): Activated
- Diseases or functions annotation: Glucose metabolism disorder (7 days after TBI): Activated
- Diseases or functions annotation: Growth of connective tissue (7 days after TBI): Inhibited
- Diseases or functions annotation: Growth of epithelial tissue (7 days after TBI): Inhibited
- Diseases or functions annotation: Growth of tumor (7 days after TBI): Activated
- Diseases or functions annotation: Head and neck cancer (7 days after TBI): Inhibited
- Diseases or functions annotation: Head and neck tumor (7 days after TBI): Inhibited
- Diseases or functions annotation: Hematologic cancer (7 days after TBI): Inhibited
- Diseases or functions annotation: Hematologic cancer of cells (7 days after TBI): Inhibited
- Diseases or functions annotation: Hematopoietic neoplasm (7 days after TBI): Inhibited
- Diseases or functions annotation: Intestinal tumor (7 days after TBI): Inhibited
- Diseases or functions annotation: Invasion of cells (7 days after TBI): Activated
- Diseases or functions annotation: Leukocyte migration (7 days after TBI): Activated
- Diseases or functions annotation: Lymphatic system tumor (7 days after TBI): Inhibited
- Diseases or functions annotation: Lymphocytic cancer (7 days after TBI): Inhibited
- Diseases or functions annotation: Lymphocytic neoplasm (7 days after TBI): Inhibited
- Diseases or functions annotation: Lymphoid cancer (7 days after TBI): Inhibited
- Diseases or functions annotation: Lymphoma (7 days after TBI): Inhibited
- Diseases or functions annotation: Lymphoproliferative disorder (7 days after TBI): Inhibited
- Diseases or functions annotation: Lymphoreticular neoplasm (7 days after TBI): Inhibited
- Diseases or functions annotation: Malignant genitourinary solid tumor (7 days after TBI): Activated
- Diseases or functions annotation: Malignant solid tumor (7 days after TBI): Activated
- Diseases or functions annotation: Microtubule dynamics (7 days after TBI): Activated
- Diseases or functions annotation: Migration of cells (7 days after TBI): Activated
- Diseases or functions annotation: Migration of endothelial cells (7 days after TBI): Activated
- Diseases or functions annotation: Morbidity or mortality (7 days after TBI): Inhibited
- Diseases or functions annotation: Necrosis (7 days after TBI): Activated
- Diseases or functions annotation: Necrosis of epithelial tissue (7 days after TBI): Activated
- Diseases or functions annotation: Neoplasia of cells (7 days after TBI): Activated
- Diseases or functions annotation: Neoplasia of leukocytes (7 days after TBI): Inhibited
- Diseases or functions annotation: Non-hematological solid tumor (7 days after TBI): Activated
- Diseases or functions annotation: Non-melanoma solid tumor (7 days after TBI): Activated
- Diseases or functions annotation: Nonhematologic malignant neoplasm (7 days after TBI): Inhibited
- Diseases or functions annotation: Obesity (7 days after TBI): Activated
- Diseases or functions annotation: Organismal death (7 days after TBI): Inhibited
- Diseases or functions annotation: Organization of cytoskeleton (7 days after TBI): Activated
- Diseases or functions annotation: Pelvic tumor (7 days after TBI): Activated
- Diseases or functions annotation: Peripheral vascular disease (7 days after TBI): Activated
- Diseases or functions annotation: Proliferation of connective tissue cells (7 days after TBI): Inhibited
- Diseases or functions annotation: Proliferation of epithelial cells (7 days after TBI): Inhibited
- Diseases or functions annotation: Quantity of cells (7 days after TBI): Activated
- Diseases or functions annotation: Quantity of connective tissue (7 days after TBI): Activated
- Diseases or functions annotation: Renal impairment (7 days after TBI): Activated
- Diseases or functions annotation: Secretion of molecule (7 days after TBI): Activated
- Diseases or functions annotation: Sensory system development (7 days after TBI): Inhibited
- Diseases or functions annotation: Size of body (7 days after TBI): Activated
- Diseases or functions annotation: Skin lesion (7 days after TBI): Inhibited
- Diseases or functions annotation: Skin tumor (7 days after TBI): Inhibited
- Diseases or functions annotation: Solid tumor (7 days after TBI): Activated
- Diseases or functions annotation: Synthesis of lipid (7 days after TBI): Activated
- Diseases or functions annotation: Transcription (7 days after TBI): Activated
- Diseases or functions annotation: Transcription of RNA (7 days after TBI): Activated
- Diseases or functions annotation: Transport of molecule (7 days after TBI): Activated
- Diseases or functions annotation: Tumorigenesis of tissue (7 days after TBI): Inhibited
- Diseases or functions annotation: Vasculogenesis (7 days after TBI): Activated
